Source: paper PMC3159312 (Enzyme Research, 2011)
Where two headings read alike, the source gives them in different places.

Tests used:
AfUGM [1] = biological target: T1, AfUGM (Aspergillus fumigatus, UniProt Q4W1X2); assay: FP binding assay to determine chromophore binding affinities (AfUGM); details: for Kd: UDP-fluorescent probes, 15 nM chromophore, serially diluted AfUGM, 0.05 M sodium phosphate pH 7.0, fluorescence anisotropy, read-out: K d for AfUGM; for Binding to AfUGM relative to the UDP-fluorescein analogs (times better): ratio of Kd values
T1 construct: made in house
T1 sequence (Q4W1X2 whole entry): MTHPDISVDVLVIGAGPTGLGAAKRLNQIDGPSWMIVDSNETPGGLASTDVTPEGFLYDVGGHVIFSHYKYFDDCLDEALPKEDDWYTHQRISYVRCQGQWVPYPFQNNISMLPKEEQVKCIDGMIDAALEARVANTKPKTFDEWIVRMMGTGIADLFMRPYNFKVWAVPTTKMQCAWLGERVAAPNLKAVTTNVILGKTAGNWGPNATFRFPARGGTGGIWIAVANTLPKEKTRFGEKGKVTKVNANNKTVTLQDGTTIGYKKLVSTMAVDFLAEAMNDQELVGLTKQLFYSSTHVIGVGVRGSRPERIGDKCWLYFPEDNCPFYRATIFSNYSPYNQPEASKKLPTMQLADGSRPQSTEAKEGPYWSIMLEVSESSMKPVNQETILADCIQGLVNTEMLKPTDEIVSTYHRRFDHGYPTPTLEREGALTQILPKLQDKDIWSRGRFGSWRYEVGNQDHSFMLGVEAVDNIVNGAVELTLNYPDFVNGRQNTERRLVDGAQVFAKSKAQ
Procedure: Solutions containing various concentrations of chromophore in 0.05 M sodium phosphate buffer (pH 7.0) were added to 12 wells in a 96-well half area black bottom plate (Corning) with final volumes of 25 μL. FP was analyzed by a SpectraMax M5 plate reader (Molecular Devices). The parallel fluorescence emission (F=) and perpendicular fluorescence emission (F⊥) at 524 nm (for compounds 1 and 2, excitation at 492 nm) or at 584 nm (for compounds 3 and 4, excitation at 544 nm) were measured by a SpectraMax M5 plate reader (Molecular Devices), and the anisotropy (r) was calculated using (1), the minimal concentration at which stable FP signals with minimal standard deviations were chosen as the optimal concentration for the chromophore.
(1) r=F=−G·F⊥/F=+2G·F⊥ (2) y=m1+(m2−m1) ×(x+Ct+m3)−(x+Ct+m3)^2−4xCt/2Ct
Solutions containing serially diluted AfUGM and 15 nM of chromophore in 0.05 M sodium phosphate buffer (pH 7.0) were incubated at room temperature for 5 minutes. Each experiment was done in triplicate in a 96-well black bottom plate at final volumes of 25 μL. Fluorescence anisotropy was measured as indicated above, and the K d values were obtained by fitting the anisotropy data to (2), where m 1 and m 2 are the minimum and maximum anisotropy values, respectively; m 3 is the K d value, and the total concentration of UDP-chromophore is represented by C t.

MtUGM [2] = biological target: T2, MtUGM (Mycobacterium tuberculosis, UniProt P9WIQ1); assay: FP binding assay to determine chromophore binding affinities (MtUGM); details: UDP-fluorescent probes, fluorescence anisotropy; read-out: K d for MtUGM
T2 construct: made in house
T2 sequence (P9WIQ1 whole entry): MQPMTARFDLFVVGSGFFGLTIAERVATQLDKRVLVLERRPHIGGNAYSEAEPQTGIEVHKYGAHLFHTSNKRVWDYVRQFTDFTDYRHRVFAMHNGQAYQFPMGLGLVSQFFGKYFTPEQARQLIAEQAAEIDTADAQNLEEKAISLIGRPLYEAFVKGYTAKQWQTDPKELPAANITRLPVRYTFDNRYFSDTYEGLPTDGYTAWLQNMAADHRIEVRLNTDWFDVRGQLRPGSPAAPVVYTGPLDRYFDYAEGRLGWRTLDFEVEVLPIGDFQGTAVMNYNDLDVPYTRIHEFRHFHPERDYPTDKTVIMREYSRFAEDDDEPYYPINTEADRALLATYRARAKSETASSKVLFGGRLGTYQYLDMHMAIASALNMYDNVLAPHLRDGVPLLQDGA

AfUGM [3] = biological target: T1, AfUGM; assay: Competitive binding experiments using FP inhibition assay (AfUGM, chromophore 3 as probe)
Procedure: (§1) Each solution was done in triplicate. Anisotropy values were measured and the IC50 values obtained by fitting the data to (4), where m 1 and m 2 are the minimum and maximum anisotropy, respectively; m 3 is the slope, and m4 is the IC50.

AfUGM [4] = biological target: T1, AfUGM; details: previously determined; read-out: K d for AfUGM by directly monitoring the flavin fluorescence; cited from earlier work
MtUGM [5] = biological target: T2, MtUGM; assay: Competitive binding FP inhibition assay (MtUGM)
Procedure: as §1

AfUGM [6] = biological target: T1, AfUGM; assay: AfUGM activity assay (formation of UDP-Galp from UDP-Galf by HPLC); type: biochemical; details: 0.5 mM UDP-Galf, 50 nM AfUGM, 37°C, 10 min
Procedure: A 20 μL reaction containing 20 mM dithiothreitol, 0.5 mM UDP-Galf in 25 mM HEPES, 125 mM NaCl buffer, pH 7.5 in the absence of 7 or 8 was initiated by the addition of AfUGM at a final concentration of 50 nM. After incubation at 37°C for 10 min, the reaction was quenched by heat denaturation (95°C for 5 min) in a DNA engine thermocycler (BioRad, Hercules, Calif, USA). The same reaction was also performed in the presence of 7 (500 μM) or 8 (50 μM). The suspension was centrifuged and the supernatant was injected onto a CarboPac PA100 (Dionex) anion-exchange column. The sample was eluted isocratically with 75 mM KH2PO4 (pH 4.5), and the absorbance at 262 nm was monitored to identify fractions of substrate and product.

SMILES	Kd (AfUGM [1])	Binding to AfUGM relative to the UDP-fluorescein analogs (times better) (AfUGM [1])	Kd (MtUGM [2])	Kd (AfUGM [3])	Kd (MtUGM [5])	other results
CN(C)c1ccc2c(-c3ccc(C(=O)NCCCCCCOP(=O)(O)OP(=O)(O)OCC4OC(n5ccc(=O)[nH]c5=O)C(O)C4O)cc3C(=O)[O-])c3ccc(=[N+](C)C)cc-3oc2c1 (stereo not drawn) [Chromophore 3]	2.6 ± 0.2 µM	~ 6 times	0.73 ± 0.07 µM			
CN(C)c1ccc2c(-c3ccc(C(=O)NCCOP(=O)(O)OP(=O)(O)OCC4OC(n5ccc(=O)[nH]c5=O)C(O)C4O)cc3C(=O)[O-])c3ccc(=[N+](C)C)cc-3oc2c1 (stereo not drawn) [Chromophore 4]	3 ± 0.7 µM	~ 6 times	> 30 µM			
O=c1ccn([C@@H]2O[C@H](COP(=O)(O)OP(=O)(O)O)[C@@H](O)[C@H]2O)c(=O)[nH]1 [UDP]						Kd (AfUGM [3]; read-out: K d for AfUGM): 9 ± 1.7 µM; Kd (AfUGM [4]): 33 ± 9 µM; Kd (MtUGM [5]; UGM ligands, FP competition, read-out: K d for MtUGM): 15 ± 2 µM
O=C(Nc1ccccc1C(=O)O)c1ccc2c(c1)C(=O)N(c1ccc(Br)cc1)C2=O [compound 7]				140 ± 9 µM	21 ± 1 µM	Inhibition of AfUGM activity (conversion of UDP-Galf to UDP-Galp, HPLC) (AfUGM [6]; inhibitor 500 μM): inhibit the activity of AfUGM
O=C1N/C(=N/S(=O)(=O)c2ccccc2)S/C1=C1/C(=O)Nc2ccc([N+](=O)[O-])cc21 [compound 8]				11 ± 0.4 µM	25 ± 2 µM	Inhibition of AfUGM activity (conversion of UDP-Galf to UDP-Galp, HPLC) (AfUGM [6]; inhibitor 50 μM): inhibit the activity of AfUGM
